In patent US20220362396A1, “AMINO-PYRAZINECARBOXAMIDE COMPOUNDS, CONJUGATES, AND USES THEREOF” (Silverback Therapeutics, Inc., priority 2018, published 2022):

How the values were obtained:
[1] = tested on: TGFβ/SMAD Signaling Pathway SBE reporter cell line; assay: TGFβ reporter assay, in vitro small molecule screening (luciferase); format: cell-based; conditions: TGFβ stimulation, luminescence
Method: TGFβ/SMAD Signaling Pathway SBE reporter cell line was obtained from BPS Bioscience. Cells were passed, expanded, and stored in liquid nitrogen as per the supplier's instructions with the exception that growth media is changed to DMEM-C with Geneticin (DMEM supplemented with 10% fetal bovine serum, 1×NEAA, 1 mM Pyruvate, 2 mM glutamine, 50 μg/mL penicillin, 50 U/mL streptomycin and 400 μg/mL of Geneticin). The assay media was MEM supplemented with 0.5% fetal bovine serum, 1×NEAA, 1 mM Pyruvate, 50 μg/mL penicillin and 50 U/mL streptomycin.
Test samples (at desired concentrations diluted in assay media) were added to a 96-well assay plate, 20 μL per well. Reporter cells were harvested from the tissue culture flasks by incubation in small quantity of PBS at 37° C. for two minutes after the media in the flask is removed and cells rinsed with PBS. Cells were counted and diluted in the assay media at approximately 0.5×10^6 cells/mL and then 80 μL/well of cells were added to the assay plate containing the 20 μL/well of test samples (or media only), and incubated for approximately 5-6 hours at 37° C. in a 5% CO2 humidified incubator. After that time, 15 μL of TGFβ diluted to 12 ng/mL in the assay media was added to the plate. Controls included TGFβ titration (from 50 to 0 ng/mL) without inhibitors, and media only (without cells, inhibitor or TGFβ). Plates were incubated at 37° C. in a 5% CO2 humidified incubator for 18 h. Luciferase substrate solution is subsequently added at 100 μL per well, incubated in the dark at room temperature for 15 min, and luminescence is measured using a luminometer. EC50 values and curve fits were obtained using Prism (GraphPad Software).

TGFBR2 = target: T1, TGFBR2 (Homo sapiens, UniProt P37173); assay: TGFBR2 RBC assay (enzyme inhibition assay, Reaction Biology Corp.); format: biochemical
T1 construct: purchased Reaction Biology Corp
T1 sequence (P37173 23-567): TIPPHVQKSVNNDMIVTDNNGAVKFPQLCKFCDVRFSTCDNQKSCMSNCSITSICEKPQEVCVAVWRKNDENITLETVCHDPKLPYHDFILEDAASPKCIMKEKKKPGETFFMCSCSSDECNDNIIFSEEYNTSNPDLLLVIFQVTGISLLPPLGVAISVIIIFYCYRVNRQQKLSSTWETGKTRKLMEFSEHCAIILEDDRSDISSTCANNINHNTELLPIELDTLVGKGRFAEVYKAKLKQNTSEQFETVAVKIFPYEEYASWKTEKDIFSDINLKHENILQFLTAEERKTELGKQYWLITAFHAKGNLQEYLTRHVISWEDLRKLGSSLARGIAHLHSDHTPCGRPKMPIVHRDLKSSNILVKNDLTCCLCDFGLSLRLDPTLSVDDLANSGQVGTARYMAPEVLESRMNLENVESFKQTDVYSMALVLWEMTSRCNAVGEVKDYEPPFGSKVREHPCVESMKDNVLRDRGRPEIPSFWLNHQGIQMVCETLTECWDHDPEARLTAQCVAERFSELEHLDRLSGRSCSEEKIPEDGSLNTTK
Method: Compounds of the disclosure were also assayed by Reaction Biology Corp. using the TGFBR2 RBC assay (enzyme inhibition assay). […] NT refers to not tested.

Row | Compound | EC50 [1] | IC50 (TGFBR2)
1 | Nc1ncc(-c2ccc(CCNC(=O)OCc3ccccc3)cc2)nc1C(=O)Nc1cnccc1N1CCOCC1 [Compound 1.1, Benzyl (4-(5-amino-6-((4-morpholinopyridin-3-yl)carbamoyl)pyrazin-2-yl)phenethyl)carbamate] | 100 to 1000 nM | < 50 nM
2 | Nc1ncc(-c2ccc(CCCNC(=O)OCc3ccccc3)cc2)nc1C(=O)Nc1cnccc1N1CCOCC1 [Compound 1.2] | 100 to 1000 nM | < 50 nM
3 | NCCCc1ccc(-c2cnc(N)c(C(=O)Nc3cnccc3N3CCOCC3)n2)cc1 [Compound 2.1, 3-Amino-6-(4-(3-aminopropyl)phenyl)-N-(4-morpholinopyridin-3-yl)pyrazine-2-carboxamide] | 50 to 100 nM | < 50 nM
4 | Cc1nccn1-c1ccncc1NC(=O)c1nc(-c2ccc(CCNC(=O)OCc3ccccc3)cc2)cnc1N [Compound 3.1, Benzyl (4-(5-amino-6-((4-(2-methyl-1H-imidazol-1-yl)pyridin-3-yl)carbamoyl)pyrazin-2-yl)phenethyl)carbamate] | 100 to 1000 nM | < 50 nM
5 | Cc1nccn1-c1ccncc1NC(=O)c1nc(-c2ccc(CCN)cc2)cnc1N [Compound 4.1, 3-Amino-6-(4-(2-aminoethyl)phenyl)-N-(4-(2-methyl-1H-imidazol-1-yl)pyridin-3-yl)pyrazine-2-carboxamide] | 100 to 1000 nM | < 50 nM
6 | Nc1ncc(-c2ccc(CCNC(=O)OCc3ccccc3)cc2)nc1C(=O)Nc1cnccc1-c1ccncc1 [Compound 5.1, Benzyl (4-(6-([4,4′-bipyridin]-3-ylcarbamoyl)-5-aminopyrazin-2-yl)phenethyl)carbamate] | 100 to 1000 nM | < 50 nM
7 | NCCc1ccc(-c2cnc(N)c(C(=O)Nc3cnccc3N3CCOCC3)n2)cc1 [Compound 6] | 50 to 100 nM | < 50 nM
8 | NCc1ccc(-c2cnc(N)c(C(=O)Nc3cnccc3N3CCOCC3)n2)cc1 [Compound 7] | 50 to 100 nM | < 50 nM
9 | NCCc1ccc(-c2cnc(N)c(C(=O)Nc3cnccc3N3CCOCC3CO)n2)cc1 (stereo not shown) [Compound 8] | 100 to 1000 nM | –
10 | N#Cc1cnccc1-c1ccncc1NC(=O)c1nc(-c2ccc(CCNC(=O)OCc3ccccc3)cc2)cnc1N [Compound 9] | 100 to 1000 nM | –
11 | N#Cc1cnccc1-c1ccncc1NC(=O)c1nc(-c2ccc(CCNC(=O)OCc3ccccc3)cc2)cnc1N [Compound 10] | > 1000 nM | –
12 | Nc1ncc(-c2ccc(CCNC(=O)[C@H](CCC(=O)O)NC(=O)OCc3ccccc3)cc2)nc1C(=O)Nc1cnccc1N1CCOCC1 [Compound 11] | > 1000 nM | –
13 | CC(C)(C)OC(=O)N[C@@H](CCCCN)C(=O)NCCc1ccc(-c2cnc(N)c(C(=O)Nc3cnccc3N3CCOCC3)n2)cc1 [Compound 12] | 100 to 1000 nM | –
14 | N#Cc1ncccc1-c1ccncc1NC(=O)c1nc(-c2ccc(CCNC(=O)OCc3ccccc3)cc2)cnc1N [Compound 13] | > 1000 nM | –
15 | COc1ccc(-c2ccncc2NC(=O)c2nc(-c3ccc(CCNC(=O)OCc4ccccc4)cc3)cnc2N)cc1 [Compound 14] | > 1000 nM | > 1000 nM
16 | N#Cc1ccc(-c2ccncc2NC(=O)c2nc(-c3ccc(CCNC(=O)OCc4ccccc4)cc3)cnc2N)cc1 [Compound 15] | 100 to 1000 nM | 100 to 1000 nM
17 | COc1ccc(-c2ccncc2NC(=O)c2nc(-c3ccc(CCNC(=O)OCc4ccccc4)cc3)cnc2N)cn1 [Compound 16] | 100 to 1000 nM | < 50 nM
18 | Cc1cc(-c2ccncc2NC(=O)c2nc(-c3ccc(CCNC(=O)OCc4ccccc4)cc3)cnc2N)ccn1 [Compound 17] | 100 to 1000 nM | 100 to 1000 nM
19 | Nc1ncc(-c2ccc(CCNC(=O)OCc3ccccc3)cc2)nc1C(=O)Nc1cnccc1-c1ccnc(Cl)c1 [Compound 18] | 100 to 1000 nM | > 1000 nM
20 | Nc1ncc(-c2ccc(CCNC(=O)OCc3ccccc3)cc2)nc1C(=O)Nc1cnccc1-c1ccnc2ccccc12 [Compound 19] | > 1000 nM | > 1000 nM
21 | Nc1ncc(-c2ccc(CCNC(=O)OCc3ccccc3)cc2)nc1C(=O)Nc1cnccc1-c1ccc(F)cc1 [Compound 20] | > 1000 nM | > 1000 nM
22 | CN(c1ccc(-c2cnc(N)c(C(=O)Nc3cnccc3N3CCOCC3)n2)cc1)C1CCNCC1 [Compound 301] | 50 to 100 nM | –

More lines, now with the values ahead:

Row | EC50 [1] | IC50 (TGFBR2) | Compound
23 | 100 to 1000 nM | > 1000 nM | COc1cc(-c2ccncc2NC(=O)c2nc(-c3ccc(CCNC(=O)OCc4ccccc4)cc3)cnc2N)ccn1 [Compound 21]
24 | 50 to 100 nM | 100 to 1000 nM | Nc1ncc(-c2ccc(CCNC(=O)OCc3ccccc3)cc2)nc1C(=O)Nc1cnccc1-c1ccc(=O)[nH]c1 [Compound 22]
25 | 100 to 1000 nM | < 50 nM | Nc1ncc(-c2ccc(CCNC(=O)OCc3ccccc3)cc2)nc1C(=O)Nc1cnccc1-c1ccncc1F [Compound 23]
26 | 100 to 1000 nM | 100 to 1000 nM | COc1cccc(-c2ccncc2NC(=O)c2nc(-c3ccc(CCNC(=O)OCc4ccccc4)cc3)cnc2N)c1 [Compound 24]
27 | – | < 50 nM | Nc1ncc(-c2ccc(OCCNC(=O)OCc3ccccc3)cc2)nc1C(=O)Nc1cnccc1N1CCOCC1 [Compound 45]
28 | 100 to 1000 nM | – | CC(=O)c1ccc(C(=O)NCCc2ccc(-c3cnc(N)c(C(=O)Nc4cnccc4N4CCOCC4)n3)cc2)cc1 [Compound 58]
29 | 100 to 1000 nM | – | Cc1cc(CNC(=O)OCc2ccccc2)ccc1-c1cnc(N)c(C(=O)Nc2cnccc2N2CCOCC2)n1 [Compound 60]
30 | > 1000 nM | – | COCCNc1ccncc1NC(=O)c1nc(-c2ccc(CCNC(=O)OCc3ccccc3)cc2)cnc1N [Compound 99]
31 | > 1000 nM | – | COCCNc1ccncc1NC(=O)c1nc(-c2ccc(CCN)cc2)cnc1N [Compound 100]
32 | – | 100 to 1000 nM | NCCc1ccc(-c2cnc(N)c(C(=O)Nc3cnccc3-n3ccnc3-c3ccccc3)n2)cc1 [Compound 145]
33 | – | 100 to 1000 nM | Nc1ncc(-c2ccc(CCNC(=O)OCc3ccccc3)cc2)nc1C(=O)Nc1cnccc1-n1ccnc1-c1ccccc1 [Compound 146]
34 | – | 50 to 100 nM | NCCc1ccc(-c2cnc(N)c(C(=O)Nc3cncc(-c4ccccc4[N+](=O)[O-])c3)n2)cc1 [Compound 147]
35 | > 1000 nM | – | Nc1ncc(-c2ccc([C@@H]3CNC[C@H]3C(=O)O)cc2)nc1C(=O)Nc1cnccc1N1CCOCC1 [Compound 231]
36 | 100 to 1000 nM | – | Nc1ncc(-c2ccc(N[C@@H]3CCNC3)cc2)nc1C(=O)Nc1cnccc1N1CCOCC1 [Compound 281]
37 | 100 to 1000 nM | – | CC(C)(C)OC(=O)N1CC[C@@H](Nc2ccc(-c3cnc(N)c(C(=O)Nc4cnccc4N4CCOCC4)n3)cc2)C1 [Compound 282]
38 | 100 to 1000 nM | – | Nc1ncc(-c2ccc(N3CCC[C@@H](N)C3)cc2)nc1C(=O)Nc1cnccc1N1CCOCC1 [Compound 283]

Row | EC50 [1] | IC50 (TGFBR2) | Compound
39 | 100 to 1000 nM | – | CC(C)(C)OC(=O)N[C@@H]1CCCN(c2ccc(-c3cnc(N)c(C(=O)Nc4cnccc4N4CCOCC4)n3)cc2)C1 [Compound 284]
40 | 50 to 100 nM | – | Nc1ncc(-c2ccc(N3CCC[C@H](N)C3)cc2)nc1C(=O)Nc1cnccc1N1CCOCC1 [Compound 285]
41 | 100 to 1000 nM | – | CC(C)(C)OC(=O)N[C@H]1CCCN(c2ccc(-c3cnc(N)c(C(=O)Nc4cnccc4N4CCOCC4)n3)cc2)C1 [Compound 286]
42 | 100 to 1000 nM | – | CC(S)CCC(=O)NCC(C)Oc1ccc(-c2cnc(N)c(C(=O)Nc3cnccc3N3CCOCC3)n2)cc1 (stereo not shown) [Compound 287]
43 | 100 to 1000 nM | – | CC(CNC(=O)CCC(C)(C)S)Oc1ccc(-c2cnc(N)c(C(=O)Nc3cnccc3N3CCOCC3)n2)cc1 (stereo not shown) [Compound 288]
44 | 50 to 100 nM | – | Nc1ncc(-c2ccc(N3CCN(CCO)CC3)cc2)nc1C(=O)Nc1cnccc1N1CCOCC1 [Compound 289]
45 | < 50 nM | – | CN(C)C1CCN(c2ccc(-c3cnc(N)c(C(=O)Nc4cnccc4N4CCOCC4)n3)cc2)CC1 [Compound 290]
46 | 100 to 1000 nM | – | CN(c1ccc(-c2cnc(N)c(C(=O)Nc3cnccc3N3CCOCC3)n2)cc1)C1CCN(C(=O)OC(C)(C)C)CC1 [Compound 291]
47 | 100 to 1000 nM | – | NCCN(CCO)c1ccc(-c2cnc(N)c(C(=O)Nc3cnccc3N3CCOCC3)n2)cc1 [Compound 292]
48 | 100 to 1000 nM | – | Nc1ncc(-c2ccc(N(CCO)CCNC(=O)OCc3ccccc3)cc2)nc1C(=O)Nc1cnccc1N1CCOCC1 [Compound 293]
49 | 100 to 1000 nM | – | COC(=O)[C@@H](C)N(C)c1ccc(-c2cnc(N)c(C(=O)Nc3cnccc3N3CCOCC3)n2)cc1 [Compound 294]
50 | 100 to 1000 nM | – | C[C@H](C(=O)O)N(C)c1ccc(-c2cnc(N)c(C(=O)Nc3cnccc3N3CCOCC3)n2)cc1 [Compound 295]
51 | < 50 nM | – | C[C@H](CO)N(C)c1ccc(-c2cnc(N)c(C(=O)Nc3cnccc3N3CCOCC3)n2)cc1 [Compound 296]
52 | 100 to 1000 nM | – | COC(=O)[C@H](C)N(C)c1ccc(-c2cnc(N)c(C(=O)Nc3cnccc3N3CCOCC3)n2)cc1 [Compound 297]
53 | 100 to 1000 nM | – | C[C@@H](C(=O)O)N(C)c1ccc(-c2cnc(N)c(C(=O)Nc3cnccc3N3CCOCC3)n2)cc1 [Compound 298]
54 | 100 to 1000 nM | – | CN(c1ccc(-c2cnc(N)c(C(=O)Nc3cnccc3N3CCOCC3)n2)cc1)[C@@H]1CCN(C(=O)OC(C)(C)C)C1 [Compound 300]
